These results are taken from ChEMBL document CHEMBL3414510 (J Med Chem, 2015).

The subject of one data set is Liver. Put plainly: Metabolic stability in CD1 mouse liver microsomes after 30 mins by LC/MS analysis. The format is ADME. The settings on record: 0.5 h. Background: Liver microsomes are a subcellular fraction often used to study metabolism.
For a further data set, the system named is Mus musculus. The data set can be described thus: Clearance in Balb/C mouse at 5 mg/kg, iv and po relative to liver blood flow. In kind it is ADME, organism-based. Further details: dose 5 mg/kg, route oral. Conditions: in vivo.
Data set [1] in a line: Permeability across human Caco2 cells. Conditions: caco-2. The format is ADME, cell-based.

As for `Cn1cc(CCn2cnc(-c3cnn(C)c3)c2-c2ccc(C#N)cc2)cn1`, in the data set with Liver, the Stability result was “Stable”. Further, the CL with Mus musculus turned out to be 50%. Also, the permeability result in data set [1] is recorded as “permeable”.
